{"source": "paper PMC5527824", "about": "(Frontiers in bioscience (Scholar edition), 2015)", "key": {"[1]": {"tested_on": "human lung adenocarcinoma cell line H1299", "settings": "H1299 cells; cited from earlier work"}, "[2]": {"settings": "rats, intravenous and oral administration; cited from earlier work"}, "[3]": {"tested_on": "HT22 cells", "settings": "cited from earlier work"}, "[4]": {"target": "hERG (Homo sapiens, UniProt Q12809)", "sequence (Q12809 whole entry)": "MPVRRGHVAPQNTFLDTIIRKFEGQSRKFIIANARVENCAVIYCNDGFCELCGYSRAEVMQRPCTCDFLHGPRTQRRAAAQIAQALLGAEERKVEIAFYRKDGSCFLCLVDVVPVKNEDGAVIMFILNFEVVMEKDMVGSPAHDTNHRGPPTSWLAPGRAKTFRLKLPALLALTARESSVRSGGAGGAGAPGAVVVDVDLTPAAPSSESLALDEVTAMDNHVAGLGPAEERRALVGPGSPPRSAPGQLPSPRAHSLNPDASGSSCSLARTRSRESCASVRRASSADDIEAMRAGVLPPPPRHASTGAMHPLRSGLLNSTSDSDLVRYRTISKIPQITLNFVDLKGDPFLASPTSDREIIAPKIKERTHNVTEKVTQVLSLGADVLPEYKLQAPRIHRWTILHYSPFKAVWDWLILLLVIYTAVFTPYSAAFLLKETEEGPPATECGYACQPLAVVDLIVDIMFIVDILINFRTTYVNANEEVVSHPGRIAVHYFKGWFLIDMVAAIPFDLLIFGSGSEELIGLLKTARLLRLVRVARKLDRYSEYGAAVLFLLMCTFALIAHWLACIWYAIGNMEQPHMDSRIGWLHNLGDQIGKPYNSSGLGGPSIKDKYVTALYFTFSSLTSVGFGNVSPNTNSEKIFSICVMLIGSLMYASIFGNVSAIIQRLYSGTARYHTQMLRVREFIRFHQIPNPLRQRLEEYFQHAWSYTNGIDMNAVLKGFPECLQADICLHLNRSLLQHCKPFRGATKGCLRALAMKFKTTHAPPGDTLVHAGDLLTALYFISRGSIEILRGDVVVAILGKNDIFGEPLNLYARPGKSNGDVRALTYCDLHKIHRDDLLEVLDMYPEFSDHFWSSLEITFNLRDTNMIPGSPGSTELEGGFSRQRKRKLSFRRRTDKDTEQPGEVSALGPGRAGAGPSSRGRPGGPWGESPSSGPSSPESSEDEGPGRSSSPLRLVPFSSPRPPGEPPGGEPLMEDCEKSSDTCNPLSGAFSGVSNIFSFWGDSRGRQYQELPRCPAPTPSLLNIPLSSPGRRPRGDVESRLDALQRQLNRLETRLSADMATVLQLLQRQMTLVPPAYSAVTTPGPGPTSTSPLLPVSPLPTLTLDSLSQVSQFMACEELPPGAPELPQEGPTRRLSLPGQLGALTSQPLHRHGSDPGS", "assay": "hERG activity", "settings": "at concentrations up to 10 μM, the highest concentration tested; unpublished results"}, "[5]": {"settings": "cited from earlier work"}, "[6]": {"tested_on": "ATF4", "settings": "basal half-life ~10 min; cited from earlier work"}, "[7]": {"tested_on": "APPswe/PS1dE9 double transgenic AD mice", "settings": "AD mice 12 months of age, 0.05% in food; cited from earlier work"}, "[8]": {"tested_on": "RAW264.7 macrophages", "settings": "RAW264.7, via increased MKP-1 levels; cited from earlier work"}, "[9]": {"tested_on": "APPswe/PS1dE9 double transgenic AD mice", "settings": "AD mice 12 months of age, 0.05% in food; cited from earlier work", "remark": "listed apart in the source"}, "[10]": {"tested_on": "monoamine oxidase A", "settings": "stated as possible mechanism; cited from earlier work"}, "[11]": {"assay": "pharmacokinetics in mice, oral", "format": "in vivo, mouse", "settings": "oral 50 mg/kg bw, unpublished results"}, "[12]": {"target": "cytochrome P450 3A4 (Homo sapiens, UniProt P08684)", "sequence (P08684 whole entry)": "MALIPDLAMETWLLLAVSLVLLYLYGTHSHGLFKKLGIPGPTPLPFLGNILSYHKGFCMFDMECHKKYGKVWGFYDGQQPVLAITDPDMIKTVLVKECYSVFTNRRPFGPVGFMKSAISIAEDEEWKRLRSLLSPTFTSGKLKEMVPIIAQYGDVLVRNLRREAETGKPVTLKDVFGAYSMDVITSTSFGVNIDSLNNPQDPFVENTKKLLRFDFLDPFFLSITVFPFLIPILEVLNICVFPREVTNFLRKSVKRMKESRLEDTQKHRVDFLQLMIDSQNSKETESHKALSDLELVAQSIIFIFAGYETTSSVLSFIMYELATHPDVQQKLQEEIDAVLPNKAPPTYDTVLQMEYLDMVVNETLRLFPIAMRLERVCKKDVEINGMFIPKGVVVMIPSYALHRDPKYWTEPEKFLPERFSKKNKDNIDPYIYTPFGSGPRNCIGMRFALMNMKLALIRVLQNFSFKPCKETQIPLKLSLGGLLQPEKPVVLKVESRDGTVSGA", "assay": "cytochrome P450 3A4 inhibition", "format": "in vitro ADME", "settings": "at concentrations up to 10 μM; unpublished results"}, "[13]": {"assay": "Ames test"}, "[14]": {"target": "cytochrome P450 2C9 (Homo sapiens, UniProt P11712)", "assay": "cytochrome P450 2C9 inhibition", "format": "in vitro ADME", "settings": "at concentrations up to 10 μM; unpublished results"}, "[15]": {"tested_on": "Aβ", "settings": "cell-free assay system; cited from earlier work"}, "[16]": {"tested_on": "BV-2 microglial cell line", "settings": "BV-2 cells; cited from earlier work"}, "[17]": {"tested_on": "liver microsomes", "settings": "ferrous sulfate/ascorbate; cited from earlier work"}, "[18]": {"tested_on": "tMCAO in mice", "settings": "cited from earlier work; for intracellular TNF-α production in macrophages / TNF-α–producing microglia: brain"}, "[19]": {"tested_on": "Akita mice", "assay": "Ins2^Akita mouse model of type 1 diabetes", "format": "in vivo", "settings": "0.05% in diet for 18 weeks"}, "[20]": {"tested_on": "tMCAO in mice", "settings": "cited from earlier work"}, "[21]": {"tested_on": "proteasome", "settings": "cited from earlier work"}, "[22]": {"target": "cytochrome P450 2D6 (Homo sapiens, UniProt P10635)", "sequence (P10635 whole entry)": "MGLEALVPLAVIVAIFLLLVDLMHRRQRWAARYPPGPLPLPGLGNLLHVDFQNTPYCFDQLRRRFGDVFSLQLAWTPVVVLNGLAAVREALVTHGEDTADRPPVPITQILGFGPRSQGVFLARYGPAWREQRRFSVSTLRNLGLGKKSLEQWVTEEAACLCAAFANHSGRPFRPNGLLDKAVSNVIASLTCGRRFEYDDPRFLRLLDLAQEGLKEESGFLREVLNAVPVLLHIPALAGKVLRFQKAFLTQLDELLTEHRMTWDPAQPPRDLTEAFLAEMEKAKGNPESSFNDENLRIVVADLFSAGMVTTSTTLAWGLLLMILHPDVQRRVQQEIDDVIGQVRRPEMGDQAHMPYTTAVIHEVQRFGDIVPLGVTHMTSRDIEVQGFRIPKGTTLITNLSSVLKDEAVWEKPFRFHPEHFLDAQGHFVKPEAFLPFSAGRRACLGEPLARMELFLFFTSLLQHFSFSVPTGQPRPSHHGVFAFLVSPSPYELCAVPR", "assay": "cytochrome P450 2D6 inhibition", "format": "in vitro ADME", "settings": "at concentrations up to 10 μM; unpublished results"}, "[23]": {"settings": "test tube assays; cited from earlier work"}, "[24]": {"settings": "0.05% in diet for 9 months (~25 mg/kg bw), vs control; cited from earlier work"}, "[25]": {"target": "COX2 (Human recombinant) (Homo sapiens, UniProt P35354)", "sequence (P35354 18-604)": "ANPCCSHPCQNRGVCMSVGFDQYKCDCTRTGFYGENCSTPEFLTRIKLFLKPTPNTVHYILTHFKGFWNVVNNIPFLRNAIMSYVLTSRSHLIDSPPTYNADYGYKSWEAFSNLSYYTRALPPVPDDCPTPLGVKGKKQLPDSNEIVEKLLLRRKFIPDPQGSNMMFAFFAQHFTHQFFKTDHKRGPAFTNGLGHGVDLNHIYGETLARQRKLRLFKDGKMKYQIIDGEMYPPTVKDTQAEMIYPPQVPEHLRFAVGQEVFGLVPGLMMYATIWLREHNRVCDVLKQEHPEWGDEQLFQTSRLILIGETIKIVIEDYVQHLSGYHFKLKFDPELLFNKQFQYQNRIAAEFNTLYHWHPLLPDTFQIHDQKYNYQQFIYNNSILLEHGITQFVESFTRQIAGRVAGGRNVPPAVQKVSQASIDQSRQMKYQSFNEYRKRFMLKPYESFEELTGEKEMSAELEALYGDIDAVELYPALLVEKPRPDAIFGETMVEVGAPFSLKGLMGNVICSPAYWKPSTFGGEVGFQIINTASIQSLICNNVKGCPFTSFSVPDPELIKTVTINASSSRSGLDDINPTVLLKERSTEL", "assay": "COX2 inhibition", "format": "biochemical"}, "[26]": {"target": "COX1 (Human platelets) (Homo sapiens, UniProt P23219)", "sequence (P23219 24-599)": "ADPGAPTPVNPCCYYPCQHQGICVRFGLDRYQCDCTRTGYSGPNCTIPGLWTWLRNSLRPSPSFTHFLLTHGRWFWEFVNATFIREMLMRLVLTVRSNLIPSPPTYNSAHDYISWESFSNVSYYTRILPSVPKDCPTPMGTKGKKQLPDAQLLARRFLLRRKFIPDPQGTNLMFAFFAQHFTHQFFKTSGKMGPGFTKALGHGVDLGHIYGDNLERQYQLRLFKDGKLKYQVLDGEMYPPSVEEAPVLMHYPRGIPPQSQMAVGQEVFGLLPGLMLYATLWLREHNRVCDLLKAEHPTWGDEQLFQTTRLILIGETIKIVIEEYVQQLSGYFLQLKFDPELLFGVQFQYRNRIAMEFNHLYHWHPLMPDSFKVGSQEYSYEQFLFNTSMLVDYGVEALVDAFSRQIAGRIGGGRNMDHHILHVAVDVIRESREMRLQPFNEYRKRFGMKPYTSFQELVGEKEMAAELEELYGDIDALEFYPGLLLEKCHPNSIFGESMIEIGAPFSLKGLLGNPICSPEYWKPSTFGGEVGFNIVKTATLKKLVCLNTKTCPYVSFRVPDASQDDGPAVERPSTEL", "assay": "COX1 inhibition", "format": "biochemical"}, "[27]": {"tested_on": "PC12/Htt^Q103 cells", "settings": "10 μM, 24 hr after induction of Httex1-103QP; cited from earlier work"}, "[28]": {"settings": "mouse, intravenous 223 mg/kg bw; cited from earlier work"}, "[29]": {"target": "15-LOX from rabbit reticulocytes (Oryctolagus cuniculus, UniProt P12530)", "sequence (P12530 whole entry)": "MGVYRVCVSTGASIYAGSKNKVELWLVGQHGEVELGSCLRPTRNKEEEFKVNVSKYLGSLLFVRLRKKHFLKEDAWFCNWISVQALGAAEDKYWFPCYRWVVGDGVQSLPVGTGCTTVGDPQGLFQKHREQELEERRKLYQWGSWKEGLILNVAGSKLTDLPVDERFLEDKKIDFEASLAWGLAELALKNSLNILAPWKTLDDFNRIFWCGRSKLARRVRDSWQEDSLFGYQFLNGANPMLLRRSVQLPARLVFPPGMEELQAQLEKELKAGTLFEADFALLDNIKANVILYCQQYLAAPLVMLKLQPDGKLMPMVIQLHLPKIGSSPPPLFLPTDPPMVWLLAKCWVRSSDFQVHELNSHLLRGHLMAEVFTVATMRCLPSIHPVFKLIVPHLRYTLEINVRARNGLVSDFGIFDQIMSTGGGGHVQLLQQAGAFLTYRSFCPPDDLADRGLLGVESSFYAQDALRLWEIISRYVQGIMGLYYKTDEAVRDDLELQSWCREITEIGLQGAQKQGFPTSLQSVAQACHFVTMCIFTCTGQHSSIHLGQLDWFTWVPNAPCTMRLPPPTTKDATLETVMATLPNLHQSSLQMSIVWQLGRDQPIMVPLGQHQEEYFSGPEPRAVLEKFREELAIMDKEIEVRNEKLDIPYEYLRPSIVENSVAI", "assay": "15-LOX inhibition", "settings": "Fisetin IC50, 15-LOX"}, "[30]": {"tested_on": "mouse N9 microglial cells", "settings": "cited from earlier work"}, "[31]": {"target": "5-LOX from human peripheral blood mononuclear leukocytes (PBML) (Homo sapiens, UniProt P09917)", "sequence (P09917 whole entry)": "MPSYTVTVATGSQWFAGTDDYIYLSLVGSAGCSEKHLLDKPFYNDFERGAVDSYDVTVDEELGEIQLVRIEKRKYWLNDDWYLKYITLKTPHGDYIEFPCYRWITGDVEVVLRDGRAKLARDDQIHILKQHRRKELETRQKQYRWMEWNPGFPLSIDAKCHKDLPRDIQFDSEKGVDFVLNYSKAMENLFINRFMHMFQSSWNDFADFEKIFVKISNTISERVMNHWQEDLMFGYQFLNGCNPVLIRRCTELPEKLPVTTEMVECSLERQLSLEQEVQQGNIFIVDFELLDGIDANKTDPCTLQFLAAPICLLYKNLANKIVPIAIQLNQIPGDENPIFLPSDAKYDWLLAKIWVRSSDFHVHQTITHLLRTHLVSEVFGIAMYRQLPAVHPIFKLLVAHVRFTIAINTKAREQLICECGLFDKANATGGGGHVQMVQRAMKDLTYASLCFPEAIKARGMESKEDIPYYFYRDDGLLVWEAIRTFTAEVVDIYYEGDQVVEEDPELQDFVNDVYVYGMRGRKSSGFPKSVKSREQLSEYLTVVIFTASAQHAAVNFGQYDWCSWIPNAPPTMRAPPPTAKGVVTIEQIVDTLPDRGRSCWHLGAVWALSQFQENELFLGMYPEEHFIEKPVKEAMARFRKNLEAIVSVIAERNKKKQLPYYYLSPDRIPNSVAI", "assay": "5-LOX inhibition", "format": "biochemical", "settings": "Fisetin IC50, 5-LOX"}, "[32]": {"tested_on": "5-LOX", "settings": "stimulated peritoneal leukocytes; cited from earlier work"}, "[33]": {"tested_on": "mouse HT22 hippocampal nerve cell line", "settings": "read-out: EC50, protection from IAA-induced death; HT22 cells; cited from earlier work"}, "[34]": {"tested_on": "rodent model of depression", "settings": "oral administration; cited from earlier work"}, "[35]": {"tested_on": "12-LOX", "settings": "fish gill; cited from earlier work"}, "[36]": {"tested_on": "scopolamine-induced memory impairment in mice", "settings": "cited from earlier work"}, "[37]": {"tested_on": "Akita mice", "settings": "cited from earlier work"}, "[38]": {"tested_on": "PC12 cells", "settings": "of ~30 flavonoids tested; cited from earlier work"}, "[39]": {"tested_on": "Nrf2", "settings": "basal half-life ~15 min; cited from earlier work"}}, "note": "Where “and” joins values, the source holds several entries; their conditions need not be identical. Equal entries are not always repeated. Where two headings read alike, the source gives them in different places."}
{"smiles": "O=c1c(O)c(-c2ccc(O)c(O)c2)oc2cc(O)ccc12", "note": "[fisetin, 3,3′,4′,7-tetrahydroxyflavone]", "values": [{"measurement": "NF-κB-dependent reporter gene expression and protein expression", "setting": "[1]", "result": "reduced"}, {"measurement": "t1/2 of free fisetin in serum", "setting": "[2]", "result": 2.7, "unit": "min"}, {"measurement": "extracellular Aβ toxicity", "setting": "[3]", "result": "prevents extracellular Aβ toxicity"}, {"measurement": "inhibition of hERG activity", "setting": "[4]", "result": "no inhibition"}, {"measurement": "Trolox equivalent antioxidant capacity (TEAC) value", "setting": "[5]", "result": "~ 3"}, {"measurement": "increase of ATF4 half-life", "setting": "[6]", "result": "~ 2 fold"}, {"measurement": "escape latency, hidden platform day 2", "setting": "[7]", "result": "indistinguishable from that of the wild type mice"}, {"measurement": "p38 MAPK and JNK activation", "setting": "[8]", "result": "suppresses"}, {"measurement": "time in the open arms (disinhibition)", "setting": "[9]", "result": "reversed"}, {"measurement": "inhibition of monoamine oxidase A", "setting": "[10]", "result": "mild inhibition"}, {"measurement": "half-life of free fisetin", "setting": "[11]", "result": "very short half-life"}, {"measurement": "inhibition of cytochrome P450 3A4 activity", "setting": "[12]", "result": "no inhibitory effects"}, {"measurement": "Ames test", "setting": "[13]", "result": "negative"}, {"measurement": "inhibition of cytochrome P450 2C9 activity", "setting": "[14]", "result": "no inhibitory effects"}, {"measurement": "Aβ fibril formation", "setting": "[15]", "result": "inhibit Aβ fibril formation"}, {"measurement": "LPS-induced nitric oxide production, TNF-α, PGE2 and iNOS/COX2 expression", "setting": "[16]", "result": "blocked"}, {"measurement": "concentration decreasing lipid peroxidation", "setting": "[17]", "result": 1.35, "unit": "µM"}, {"measurement": "leukocytes infiltrating the brain", "setting": "[18]; 50 mg/kg bw, day 3, mean ± SD, placebo 179,252 ± 23,389", "result": "93,045 ± 46,963 cells per ischemic hemisphere"}, {"measurement": "numbers of microglia in the ipsilesional hemisphere", "setting": "[18]; 50 mg/kg bw, day 3 after stroke, vs placebo", "result": "no significant differences"}, {"measurement": "intracellular TNF-α production in macrophages", "setting": "[18]; day 3, placebo 24.6%", "result": 2.9, "unit": "%"}, {"measurement": "TNF-α–producing microglia", "setting": "[18]; day 3, placebo 30.4%", "result": 17.3, "unit": "%"}, {"measurement": "TNF-α–producing microglia", "setting": "[18]; day 7, placebo 31.9%", "result": 26.8, "unit": "%"}, {"measurement": "intracellular TNF-α production in macrophages", "setting": "[18]; day 7, placebo 33.8%", "result": 13.9, "unit": "%"}, {"measurement": "TNF-α production in macrophages and DCs isolated from spleen", "setting": "[18]; day 3 and day 7 post ischemia, vs placebo", "result": "did not show any differences"}, {"measurement": "decrease in motor nerve conduction velocity", "setting": "[19]", "result": "ameliorated"}, {"measurement": "increase in hind paw thermal latency", "setting": "[19]", "result": "prevented"}, {"measurement": "infarct size", "setting": "[20]; 25 mg/kg i.p. 20 min before onset of ischemia, placebo 56 μl", "result": 49, "unit": "µL"}, {"measurement": "infarct size", "setting": "[20]; 50 mg/kg i.p. 20 min before onset of ischemia, placebo 56 μl", "result": 30, "unit": "µL"}, {"measurement": "infarct size", "setting": "[20]; 50 mg/kg i.p. three hours after onset of ischemia, placebo 42 μl", "result": 27, "unit": "µL"}, {"measurement": "proteasome activity", "setting": "[21]", "result": "increase proteasome activity"}, {"measurement": "inhibition of cytochrome P450 2D6 activity", "setting": "[22]", "result": "no inhibitory effects"}, {"measurement": "concentration at which pro-oxidant effects are seen", "setting": "[23]", "result": "≥ 50", "unit": "µM"}, {"measurement": "body weights", "setting": "[24]", "result": "No significant differences"}, {"measurement": "IC50", "setting": "[25]", "result": "> 10000", "unit": "nM"}, {"measurement": "IC50", "setting": "[26]", "result": "> 10000", "unit": "nM"}, {"measurement": "protection of cells", "setting": "[27]", "result": "equal or greater amount of protection"}, {"measurement": "t1/2 of free fisetin in serum", "setting": "[28]", "result": 3.12, "unit": "h"}, {"measurement": "IC50", "setting": "[29]", "result": "341 nM and 340 nM"}, {"measurement": "reduction of iNOS expression", "setting": "[30]; 10 μM, following LPS stimulation (p<0.001)", "result": 91, "unit": "%"}, {"measurement": "IκB, JNK and c-Jun phosphorylation", "setting": "[30]; LPS-stimulated murine microglia", "result": "significantly reduced"}, {"measurement": "LPS-induced nitric oxide and TNF-α production", "setting": "[30]; N9 cells, vs placebo", "result": "significant inhibition"}, {"measurement": "IC50", "setting": "[31]", "result": "585 nM and 580 nM"}, {"measurement": "inhibition of 5-LOX activity", "setting": "[32]", "result": "effective inhibitor"}, {"measurement": "EC50", "setting": "[33]", "result": 3000, "unit": "nM"}, {"measurement": "most effective dose at reducing immobility time", "setting": "[34]", "result": 20, "unit": "mg/kg bw"}, {"measurement": "inhibition of 12-LOX activity", "setting": "[35]", "result": "effective inhibitor"}, {"measurement": "loss of total GSH from the cortex", "setting": "[36]; scopolamine-treated mice", "result": "prevent the loss of total GSH"}, {"measurement": "rescue of memory deficit induced by scopolamine", "setting": "[36]; single oral dose of 40 mg/kg bw", "result": "as effective as donepezil"}, {"measurement": "elevated blood glucose and HbA1c", "setting": "[37]; 0.05% in food (25–40 mg/kg bw daily), 6 to 24 weeks", "result": "not affected"}, {"measurement": "open field test, distance traveled and time ambulatory (anxiety-related symptoms)", "setting": "[37]; 0.05% in food", "result": "restored to near normal values"}, {"measurement": "weight loss", "setting": "[37]; 0.05% in food", "result": "not altered"}, {"measurement": "differentiation of PC12 cells (neurotrophic activity)", "setting": "[38]", "result": "promoting the differentiation of PC12 cells"}, {"measurement": "increase of Nrf2 half-life", "setting": "[39]", "result": "~ 2 fold"}]}
